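Five concentrations, 48 hours, 96-well plates. GI50: concentration for 50% inhibition of growth. TGI is the concentration that stops growth completely.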
Columns and labels:
Test in all cases: growth of human tumour cells (NCI), 48 h
[1] = tested on: 786-0 renal
[2] = tested on: A498 renal
[3] = tested on: A549 NSCLC
[4] = tested on: ACHN renal
[5] = tested on: BT-549 breast
[6] = tested on: CAKI-1 renal
[7] = tested on: COLO 205 colon
[8] = tested on: DU-145 prostate
[9] = tested on: EKVX NSCLC
[10] = tested on: HCC-2998 colon
[11] = tested on: HCT-116 colon
[12] = tested on: HCT-15 colon
[13] = tested on: HL-60(TB) leukemia
[14] = tested on: HOP-62 NSCLC
[15] = tested on: HOP-92 NSCLC
[16] = tested on: HS 578T breast
[17] = tested on: HT29 colon
[18] = tested on: IGROV1 ovarian
[19] = tested on: K-562 leukemia
[20] = tested on: KM12 colon
[21] = tested on: LOX IMVI melanoma
[22] = tested on: M14 melanoma
[23] = tested on: MALME-3M melanoma
[24] = tested on: MCF7 breast
[25] = tested on: MDA-MB-231 breast
[26] = tested on: MDA-MB-435
[27] = tested on: MDA-N
[28] = tested on: MOLT-4 leukemia
[29] = tested on: NCI-H226 lung
[30] = tested on: NCI-H460 lung
[31] = tested on: NCI-H522 lung
[32] = tested on: NCI/ADR-RES ovarian
[33] = tested on: OVCAR-3 ovarian
[34] = tested on: OVCAR-4 ovarian
[35] = tested on: OVCAR-5 ovarian
[36] = tested on: OVCAR-8 ovarian
[37] = tested on: PC-3 prostate
[38] = tested on: RPMI-8226 leukemia
[39] = tested on: RXF 393 renal
[40] = tested on: SF-268 CNS
[41] = tested on: SF-295 CNS
[42] = tested on: SF-539 CNS
[43] = tested on: SK-MEL-2 melanoma
[44] = tested on: SK-MEL-28 melanoma
[45] = tested on: SK-MEL-5 melanoma
[46] = tested on: SK-OV-3 ovarian
[47] = tested on: SN12C renal
[48] = tested on: SNB-19 CNS
[49] = tested on: SNB-75 CNS
[50] = tested on: SR leukemia
[51] = tested on: SW-620 colon
[52] = tested on: T-47D breast
[53] = tested on: TK-10 renal
[54] = tested on: U251 CNS
[55] = tested on: UACC-257 melanoma
[56] = tested on: UACC-62 melanoma
[57] = tested on: UO-31 renal
[58] = tested on: CCRF-CEM leukemia
[59] = tested on: NCI-H23 lung

CC(=N\O)/C(C)=N/O.CC(=N\O)/C(C)=N/O.CC(=N\O)/C(C)=N/O.CC(=N\O)/C(C)=N/O.[CH3-].[CH3-].[Co].[Co]
GI50 [1]: 18.4 µM | TGI [1]: > 100 µM | GI50 [2]: 32.1 µM | TGI [2]: 77.1 µM | GI50 [3]: 39.5 µM | TGI [3]: > 100 µM | GI50 [4]: 35.4 µM | TGI [4]: > 100 µM | GI50 [5]: 15.1 µM | TGI [5]: 33.8 µM | GI50 [6]: 35.5 µM | TGI [6]: > 100 µM | GI50 [7]: 15 µM | TGI [7]: 29.8 µM | GI50 [8]: 30.9 µM | TGI [8]: > 100 µM | GI50 [9]: 18.7 µM | TGI [9]: 64.9 µM | GI50 [10]: 13.1 µM | TGI [10]: 26.9 µM | GI50 [11]: 7.75 µM | TGI [11]: > 100 µM | GI50 [12]: 24.8 µM | TGI [12]: > 100 µM | GI50 [13]: 17.6 µM | TGI [13]: 50.5 µM | GI50 [14]: 14.7 µM | TGI [14]: 59.2 µM | GI50 [15]: 26.2 µM | TGI [15]: 71.3 µM | GI50 [16]: 22 µM | TGI [16]: 92.5 µM | GI50 [17]: 23 µM | TGI [17]: 82.5 µM | GI50 [18]: 28 µM | TGI [18]: > 100 µM | GI50 [19]: 20.4 µM | TGI [19]: > 100 µM | GI50 [20]: 27 µM | TGI [20]: > 100 µM | GI50 [21]: 14.4 µM | TGI [21]: 31.2 µM | GI50 [22]: 13 µM | TGI [22]: 29.8 µM | GI50 [23]: 16.1 µM | TGI [23]: 30.7 µM | GI50 [24]: 16.9 µM | TGI [24]: > 100 µM | GI50 [25]: 25.3 µM | TGI [25]: 76.7 µM | GI50 [26]: 15 µM | TGI [26]: 39.9 µM | GI50 [27]: 16.3 µM | TGI [27]: > 100 µM | GI50 [28]: 23.8 µM | TGI [28]: 72.4 µM | GI50 [29]: 22.8 µM | TGI [29]: 42.4 µM | GI50 [30]: 14.6 µM | TGI [30]: 40.7 µM | GI50 [31]: 12.2 µM | TGI [31]: 27.8 µM | GI50 [32]: > 100 µM | TGI [32]: > 100 µM | GI50 [33]: 15.9 µM | TGI [33]: 78.8 µM | GI50 [34]: 21.1 µM | TGI [34]: 83.5 µM | GI50 [35]: 28.8 µM | TGI [35]: > 100 µM | GI50 [36]: 27.2 µM | TGI [36]: > 100 µM | GI50 [37]: 21.2 µM | TGI [37]: 63.8 µM | GI50 [38]: 12.8 µM | TGI [38]: 44.2 µM | GI50 [39]: 16.7 µM | TGI [39]: 39.9 µM | GI50 [40]: 21.6 µM | TGI [40]: 72.3 µM | GI50 [41]: 22.8 µM | TGI [41]: 76.5 µM | GI50 [42]: 11.3 µM | TGI [42]: 32.1 µM | GI50 [43]: 11.8 µM | TGI [43]: 27.5 µM | GI50 [44]: 30.2 µM | TGI [44]: 90.9 µM | GI50 [45]: 15.3 µM | TGI [45]: 28.6 µM | GI50 [46]: 34.5 µM | TGI [46]: > 100 µM | GI50 [47]: 21.9 µM | TGI [47]: > 100 µM | GI50 [48]: 17.6 µM | TGI [48]: > 100 µM | GI50 [49]: 15.5 µM | TGI [49]: 38.7 µM | GI50 [50]: 16.2 µM | TGI [50]: 50.1 µM | GI50 [51]: 29.4 µM | TGI [51]: > 100 µM | GI50 [52]: 26.5 µM | TGI [52]: > 100 µM | GI50 [53]: 28.5 µM | TGI [53]: 88.8 µM | GI50 [54]: 11.7 µM | TGI [54]: 24.1 µM | GI50 [55]: 14.8 µM | TGI [55]: 34.9 µM | GI50 [56]: 15.1 µM | TGI [56]: 30.5 µM | GI50 [57]: 19.3 µM | TGI [57]: 48.5 µM

Cc1cc(Cc2cc(Cc3cc(C)cc(C(C)(C)C)c3O)c(C)cc2C)c(O)c(C(C)(C)C)c1
TGI [1]: 31.6 µM | TGI [2]: 30.6 µM | TGI [3]: 30.8 µM | TGI [4]: 30.3 µM | TGI [5]: 40.6 µM | TGI [6]: 42.9 µM | TGI [58]: 48.3 µM | TGI [7]: 36.7 µM | TGI [8]: 27.6 µM | TGI [9]: 34.5 µM | TGI [10]: 27.1 µM | TGI [11]: 30 µM | TGI [12]: 42 µM | TGI [13]: 46.9 µM | TGI [14]: 36.2 µM | TGI [15]: 29.2 µM | TGI [16]: 52 µM | TGI [17]: 34.7 µM | TGI [18]: 40.5 µM | TGI [19]: 45 µM | TGI [20]: 34.7 µM | TGI [21]: 41.9 µM | TGI [22]: 33.8 µM | TGI [23]: 31.7 µM | TGI [24]: 27.2 µM | TGI [25]: > 100 µM | TGI [26]: 26.2 µM | TGI [27]: 35 µM | TGI [28]: > 100 µM | TGI [29]: 31.5 µM | TGI [59]: 37.9 µM | TGI [31]: 34 µM | TGI [32]: 42.4 µM | TGI [33]: 32.9 µM | TGI [34]: 25.4 µM | TGI [35]: 42.9 µM | TGI [36]: 75.4 µM | TGI [37]: > 100 µM | TGI [38]: 65 µM | TGI [39]: 24.8 µM | TGI [40]: 35.4 µM | TGI [41]: 39.4 µM | TGI [43]: > 100 µM | TGI [44]: 37 µM | TGI [45]: 30.2 µM | TGI [46]: 35.6 µM | TGI [47]: 31.7 µM | TGI [48]: 31.9 µM | TGI [49]: 23.9 µM | TGI [50]: 70.6 µM | TGI [51]: 40.8 µM | TGI [52]: 34.8 µM | TGI [53]: 55.1 µM | TGI [54]: > 100 µM | TGI [55]: 34.8 µM | TGI [56]: 28.1 µM | TGI [57]: 32 µM
